Values joined by “and” are separate entries in the source; they are usually repeats but may differ in a detail not shown here. Equal values may be shown once. Inconclusive results and toxic doses are left out. Cut-off read from the data, not from the text of the source: active = T/C of 150% or more; inactive = T/C below 125%.
System: L1210 leukemia ip in BDF1 mice, survival T/C
Assay: NCI In Vivo Anticancer Drug Screen. Data for tumor model L1210 Leukemia (intraperitoneal) in B6D2F1 (BDF1) mice
Details: endpoint: mean survival time, higher = longer survival
Procedure, shortened: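 Tumor was transplanted into mice, which were then dosed with test compound or vehicle alone. Survival was recorded for each group, and the treated figure was expressed relative to the control figure.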

[1] = dose: 100.0 mg/kg/injection, schedule: Q01DX001 (ip), vehicle: other
[2] = dose: 200.0 mg/kg/injection, schedule: Q01DX001 (ip), vehicle: other
[3] = dose: 400.0 mg/kg/injection, schedule: Q01DX001 (ip), vehicle: other
[4] = dose: 100.0 mg/kg/injection, schedule: Q01DX001 (ip), vehicle: saline
[5] = dose: 100.0 mg/kg/injection, schedule: Q01DX009 (ip), vehicle: saline
[6] = dose: 100.0 mg/kg/injection, schedule: Q04DX003 (ip), vehicle: saline
[7] = dose: 200.0 mg/kg/injection, schedule: Q01DX001 (ip), vehicle: saline
[8] = dose: 200.0 mg/kg/injection, schedule: Q04DX003 (ip), vehicle: saline
[9] = dose: 400.0 mg/kg/injection, schedule: Q01DX001 (ip), vehicle: saline
[10] = dose: 400.0 mg/kg/injection, schedule: Q04DX003 (ip), vehicle: saline
[11] = dose: 100.0 mg/kg/injection, schedule: Q04DX003 (ip), vehicle: saline with Tween-80
[12] = dose: 100.0 mg/kg/injection, schedule: Q04DX002 (ip), vehicle: saline with Tween-80
[13] = dose: 100.0 mg/kg/injection, schedule: Q04DX003 (ip), vehicle: Klucel (hydroxypropylcellulose) (HPC)
[14] = dose: 50.0 mg/kg/injection, schedule: Q04DX003 (ip), vehicle: Klucel (hydroxypropylcellulose) (HPC)
[15] = dose: 100.0 mg/kg/injection, schedule: Q01DX001 (ip), vehicle: Klucel (hydroxypropylcellulose) (HPC)

Measured: T/C

O=C(O)c1c(O)c(Br)cc(Br)c1O
inactive: [1] 109 % of control | [2] 104 % of control | [3] 90 % of control

CC(C)OC(=O)c1ccccc1-c1ccccc1
inactive: [1] 102 % of control | [2] 96 % of control | [3] 87 % of control

CCO/N=C(/N)N=C(N)N
inactive: [4] 92 % of control | [5] 106 % of control | [6] 95 % of control | [7] 97 % of control | dose: 200.0 mg/kg/injection, schedule: Q01DX009 (ip), vehicle: saline 107 % of control | [8] 91 % of control | [9] 92 % of control | dose: 400.0 mg/kg/injection, schedule: Q01DX009 (ip), vehicle: saline 97 % of control | [10] 91 % of control

O=C(COc1ccccc1[N+](=O)[O-])Nc1ccccc1C(=O)O
inactive: dose: 100.0 mg/kg/injection, schedule: Q01DX001 (ip), vehicle: saline with Tween-80 92 % of control | dose: 200.0 mg/kg/injection, schedule: Q01DX001 (ip), vehicle: saline with Tween-80 92 % of control

CC(C)CC(NC(=O)CNC(=O)OCc1ccccc1)C(=O)OCc1ccccc1 (stereo not given)
inactive: dose: 100.0 mg/kg/injection, schedule: Q04DX003 (ip), vehicle: other 100 % of control | dose: 200.0 mg/kg/injection, schedule: Q04DX003 (ip), vehicle: other 108 % of control | dose: 400.0 mg/kg/injection, schedule: Q04DX003 (ip), vehicle: other 102 % of control

CCCCCCC(=C/c1ccccc1)/C=N/NC(=O)c1ccc[n+](C)c1
inactive: dose: 25.0 mg/kg/injection, schedule: Q04DX003 (ip), vehicle: saline with Tween-80 93 % of control | dose: 50.0 mg/kg/injection, schedule: Q04DX003 (ip), vehicle: saline with Tween-80 116 % of control | [11] 104 % of control

CNC(=O)Nc1ccc(C(=O)NCC(=O)O)cc1
inactive: dose: 100.0 mg/kg/injection, schedule: Q01DX009 (ip), vehicle: saline with Tween-80 100 % of control and 105 % of control | dose: 100.0 mg/kg/injection, schedule: Q04DX002 (ip), vehicle: saline 100 % of control and 92 % of control | [11] 98 % of control | dose: 200.0 mg/kg/injection, schedule: Q01DX009 (ip), vehicle: saline with Tween-80 93 % of control and 100 % of control | dose: 200.0 mg/kg/injection, schedule: Q04DX002 (ip), vehicle: saline 100 % of control and 91 % of control | dose: 200.0 mg/kg/injection, schedule: Q04DX003 (ip), vehicle: saline with Tween-80 91 % of control | dose: 400.0 mg/kg/injection, schedule: Q01DX009 (ip), vehicle: saline with Tween-80 105 % of control and 110 % of control | dose: 400.0 mg/kg/injection, schedule: Q04DX002 (ip), vehicle: saline 95 % of control and 96 % of control | dose: 400.0 mg/kg/injection, schedule: Q04DX003 (ip), vehicle: saline with Tween-80 98 % of control

O=C(/C(=C\c1ccccc1)Oc1ccc([N+](=O)[O-])cc1)c1ccccc1
inactive: [4] 88 % of control | [7] 92 % of control | [9] 95 % of control

CCCCSP(=O)(N1CCCCC1)N1CCCCC1
inactive: dose: 25.0 mg/kg/injection, schedule: Q04DX002 (ip), vehicle: saline with Tween-80 97 % of control | dose: 50.0 mg/kg/injection, schedule: Q04DX002 (ip), vehicle: saline with Tween-80 97 % of control | [12] 92 % of control and 94 % of control

NNC(=O)CC(NN)c1ccccc1O (stereo not given)
inactive: [12] 90 % of control | dose: 200.0 mg/kg/injection, schedule: Q04DX002 (ip), vehicle: saline with Tween-80 100 % of control | dose: 400.0 mg/kg/injection, schedule: Q04DX002 (ip), vehicle: saline with Tween-80 102 % of control

COc1ccc(NC(=O)NCCN(C)c2ccccc2)cc1
inactive: dose: 100.0 mg/kg/injection, schedule: Q01DX009 (ip), vehicle: Klucel (hydroxypropylcellulose) (HPC) 93 % of control and 90 % of control | dose: 100.0 mg/kg/injection, schedule: Q04DX002 (ip), vehicle: Klucel (hydroxypropylcellulose) (HPC) 96 % of control and 101 % of control and 107 % of control | [13] 98 % of control | dose: 200.0 mg/kg/injection, schedule: Q01DX009 (ip), vehicle: Klucel (hydroxypropylcellulose) (HPC) 97 % of control and 104 % of control | dose: 200.0 mg/kg/injection, schedule: Q04DX002 (ip), vehicle: Klucel (hydroxypropylcellulose) (HPC) 98 % of control and 100 % of control and 104 % of control | dose: 200.0 mg/kg/injection, schedule: Q04DX003 (ip), vehicle: Klucel (hydroxypropylcellulose) (HPC) 101 % of control | dose: 400.0 mg/kg/injection, schedule: Q01DX009 (ip), vehicle: Klucel (hydroxypropylcellulose) (HPC) 100 % of control and 101 % of control | dose: 400.0 mg/kg/injection, schedule: Q04DX002 (ip), vehicle: Klucel (hydroxypropylcellulose) (HPC) 96 % of control and 101 % of control and 103 % of control | dose: 400.0 mg/kg/injection, schedule: Q04DX003 (ip), vehicle: Klucel (hydroxypropylcellulose) (HPC) 98 % of control

COc1cc(C=C(C#N)C#N)cc(I)c1O
inactive: dose: 25.0 mg/kg/injection, schedule: Q04DX003 (ip), vehicle: Klucel (hydroxypropylcellulose) (HPC) 98 % of control | [14] 104 % of control

CCCCCCC[As](=O)(O)O
inactive: dose: 6.25 mg/kg/injection, schedule: Q01DX009 (ip), vehicle: Klucel (hydroxypropylcellulose) (HPC) 99 % of control | dose: 12.5 mg/kg/injection, schedule: Q01DX009 (ip), vehicle: Klucel (hydroxypropylcellulose) (HPC) 101 % of control

O=S(=O)(c1ccccc1)C1CC(Cl)C1 (stereo not given)
inactive: [6] 109 % of control | [8] 98 % of control | [10] 97 % of control

CC(=O)/C=C/c1ccc([N+](=O)[O-])o1
inactive: [15] 116 % of control | dose: 200.0 mg/kg/injection, schedule: Q01DX001 (ip), vehicle: Klucel (hydroxypropylcellulose) (HPC) 121 % of control

NC(N)=N/N=C/c1ccncc1
inactive: dose: 15.0 mg/kg/injection, schedule: Q01DX Z (ip), vehicle: saline 104 % of control | dose: 25.0 mg/kg/injection, schedule: Q01DX009 (ip), vehicle: saline 104 % of control | dose: 30.0 mg/kg/injection, schedule: Q01DX Z (ip), vehicle: saline 91 % of control | dose: 50.0 mg/kg/injection, schedule: Q01DX009 (ip), vehicle: saline 101 % of control | dose: 60.0 mg/kg/injection, schedule: Q01DX Z (ip), vehicle: saline 107 % of control | dose: 60.0 mg/kg/injection, schedule: Q01DX Z (oral), vehicle: saline 100 % of control | [5] 104 % of control | dose: 120.0 mg/kg/injection, schedule: Q01DX Z (ip), vehicle: saline 105 % of control | dose: 120.0 mg/kg/injection, schedule: Q01DX Z (oral), vehicle: saline 97 % of control | dose: 150.0 mg/kg/injection, schedule: Q01DX009 (ip), vehicle: saline 106 % of control | dose: 240.0 mg/kg/injection, schedule: Q01DX Z (oral), vehicle: saline 103 % of control

Nc1cc(OCc2ccccc2)ncn1
inactive: dose: 25.0 mg/kg/injection, schedule: Q01DX001 (ip), vehicle: Klucel (hydroxypropylcellulose) (HPC) 103 % of control | dose: 50.0 mg/kg/injection, schedule: Q01DX001 (ip), vehicle: Klucel (hydroxypropylcellulose) (HPC) 109 % of control | [15] 97 % of control

O=C(CCl)NC1=C(N2CC2)C(=O)c2ccccc2C1=O
inactive: [14] 93 % of control | [13] 91 % of control
